What all share (experiment): biochemical
Common to all, as to type: binding

One assay has as its target T1, μ-opioid receptor (Homo sapiens, UniProt P35372).
T1 construct: expressed in transfected cells; host or cells: CHO cells

In the next assay the target is T2, δ-opioid receptor (Homo sapiens, UniProt P41143).
T2 construct: expressed in transfected cells; host or cells: CHO cells
The following applies: Table 1b; for Ki: N-oxides; for Inhibition of agonist binding, δ: concentration not given.

For the next assay, the target named is T3, κ-opioid receptor (Homo sapiens, UniProt P41145).
T3 construct: expressed in transfected cells; host or cells: CHO cells
T3 sequence (P41145 whole entry): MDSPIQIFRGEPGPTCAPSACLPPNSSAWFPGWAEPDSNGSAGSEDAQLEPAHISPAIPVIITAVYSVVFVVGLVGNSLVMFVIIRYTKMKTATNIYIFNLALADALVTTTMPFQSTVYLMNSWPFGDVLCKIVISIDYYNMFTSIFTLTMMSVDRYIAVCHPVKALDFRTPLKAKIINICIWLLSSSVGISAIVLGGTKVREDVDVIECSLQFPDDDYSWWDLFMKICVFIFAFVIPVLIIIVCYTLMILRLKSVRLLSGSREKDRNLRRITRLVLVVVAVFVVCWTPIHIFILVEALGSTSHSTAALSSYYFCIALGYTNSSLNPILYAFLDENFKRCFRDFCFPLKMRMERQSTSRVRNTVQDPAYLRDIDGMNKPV
The settings on record: read-out: Ki (nM) ± SEM, κ.

The mark [1] stands for this setting: Ki (nM) ± SEM, μ, Table 1b, N-oxides.

Read-outs that look alike come from different tables or passages of the source. A value given as a limit tells only on which side of the number the result lay.

T2 sequence (P41143 whole entry): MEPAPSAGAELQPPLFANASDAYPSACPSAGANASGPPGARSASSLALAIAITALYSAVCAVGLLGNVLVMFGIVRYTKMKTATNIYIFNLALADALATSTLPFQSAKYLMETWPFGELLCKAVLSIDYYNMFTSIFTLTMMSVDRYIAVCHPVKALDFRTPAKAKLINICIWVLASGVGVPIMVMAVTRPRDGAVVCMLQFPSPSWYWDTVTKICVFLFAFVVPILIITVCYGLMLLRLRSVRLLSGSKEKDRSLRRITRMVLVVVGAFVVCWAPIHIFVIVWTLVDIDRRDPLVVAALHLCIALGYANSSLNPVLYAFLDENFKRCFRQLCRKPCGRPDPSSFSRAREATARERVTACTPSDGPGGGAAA
T1 sequence (P35372 whole entry): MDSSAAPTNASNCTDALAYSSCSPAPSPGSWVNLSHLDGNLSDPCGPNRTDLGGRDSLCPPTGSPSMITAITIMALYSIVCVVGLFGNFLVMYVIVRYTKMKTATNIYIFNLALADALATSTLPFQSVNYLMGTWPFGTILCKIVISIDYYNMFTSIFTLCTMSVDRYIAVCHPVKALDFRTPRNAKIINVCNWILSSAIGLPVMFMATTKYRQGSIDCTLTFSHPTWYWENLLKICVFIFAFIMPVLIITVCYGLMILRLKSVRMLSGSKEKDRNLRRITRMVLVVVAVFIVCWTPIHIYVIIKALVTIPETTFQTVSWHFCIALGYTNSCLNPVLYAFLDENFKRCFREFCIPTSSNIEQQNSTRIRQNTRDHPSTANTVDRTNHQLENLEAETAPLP

What is called Ki is the equilibrium dissociation constant of an inhibitor or competing ligand from its target. Consider `O=C(N[C@@H]1CC[C@@]2(O)[C@H]3Cc4ccc(O)c5c4[C@@]2(CC[N+]3([O-])CC2CC2)[C@H]1O5)c1cccc(O)c1` (stereo partly drawn) [Compound 34, 17-Cyclopropylmethyl-3,14β-dihydroxy-4,5α-epoxy-6β-[(3′-hydroxy)benzamido]morphinan-N-oxide], for which the Ki amounted to 34 ± 2 nM on μ-opioid receptor (setting [1]); 1170 ± 101 nM at δ-opioid receptor (Ki (nM) ± SEM, δ); 49 ± 4 nM at κ-opioid receptor.
In the same order, the values of `Cc1ccc(C(=O)N[C@@H]2CC[C@@]3(O)[C@H]4Cc5ccc(O)c6c5[C@@]3(CC[N+]4([O-])CC3CC3)[C@H]2O6)cc1` (stereo partly drawn) [Compound 21, 17-Cyclopropylmethyl-3,14β-dihydroxy-4,5α-epoxy-6β-[(4′-methyl)benzamido]morphinan-N-oxide] are 5.5 ± 0.2 nM, 342 ± 12.6 nM and 3.1 ± 0.16 nM.
In the same order, the values of `COc1ccc(C(=O)N[C@@H]2CC[C@@]3(O)[C@H]4Cc5ccc(O)c6c5[C@@]3(CC[N+]4([O-])CC3CC3)[C@H]2O6)cc1OC` (stereo partly drawn) [Compound 29, 17-Cyclopropylmethyl-3,14β-dihydroxy-4,5α-epoxy-6β-[(3′,4′-dimethoxy)benzamido]morphinan-N-oxide] are 37 ± 2 nM, 621 ± 16.2 nM and 71 ± 4.87 nM.
Taken in the same sequence, the figures for `O=C(N[C@@H]1CC[C@@]2(O)[C@H]3Cc4ccc(O)c5c4[C@@]2(CC[N+]3([O-])CC2CC2)[C@H]1O5)c1ccc(Cl)c(Cl)c1` (stereo partly drawn) [Compound 43, 17-Cyclopropylmethyl-3,14β-dihydroxy-4,5α-epoxy-6β-[(3′,4′-dichloro)benzamido]morphinan-N-oxide] were 3.6 ± 0.43 nM, 212 ± 11 nM and 2 ± 0.2 nM.
Regarding `COc1cccc(C(=O)N[C@@H]2CC[C@@]3(O)[C@H]4Cc5ccc(O)c6c5[C@@]3(CC[N+]4([O-])CC3CC3)[C@H]2O6)c1` (stereo partly drawn) [Compound 42, 17-Cyclopropylmethyl-3,14β-dihydroxy-4,5α-epoxy-6β-[(3′-methoxy)benzamido]morphinan-N-oxide], the inhibition constant Ki came out at 49 ± 8.6 nM on μ-opioid receptor (setting [1]); 1050 ± 38 nM at δ-opioid receptor (Ki (nM) ± SEM, δ); 16 ± 2 nM on κ-opioid receptor.
In the same order, the values of `CC(C)(C)c1ccc(C(=O)N[C@@H]2CC[C@@]3(O)[C@H]4Cc5ccc(O)c6c5[C@@]3(CC[N+]4([O-])CC3CC3)[C@H]2O6)cc1` (stereo partly drawn) [Compound 23, 17-Cyclopropylmethyl-3,14β-dihydroxy-4,5α-epoxy-6β-[(4′-tert-butyl)benzamido]morphinan-N-oxide] are 1.7 ± 0.07 nM, 25 ± 2.38 nM and 1.9 ± 0.14 nM.
Taken in the same sequence, the figures for `CN(C(=O)/C=C/c1ccoc1)[C@@H]1CC[C@@]2(O)[C@H]3Cc4ccc(O)c5c4[C@@]2(CC[N+]3([O-])CC2CC2)[C@H]1O5` (relative stereo) [Compound 44, 17-Cyclopropylmethyl-3,14β-dihydroxy-4,5α-epoxy-6β-[N-methyl-trans-3-(3-furyl)acrylamido]morphinan-N-oxide] were 65 ± 7.7 nM, 2510 ± 231 nM and 3.9 ± 0.5 nM.
Taken in the same sequence, the figures for `COc1cccc(C(=O)N[C@@H]2CC[C@@]3(O)[C@H]4Cc5ccc(O)c6c5[C@@]3(CC[N+]4([O-])CC3CC3)[C@H]2O6)c1` (stereo partly drawn) [Compound 30, 17-Cyclopropylmethyl-3,14β-dihydroxy-4,5α-epoxy-6β-[(3′-methoxy)benzamido]morphinan-N-oxide] were 16 ± 1 nM, 444 ± 39.1 nM and 9.7 ± 0.95 nM.
With `O=C(NC1CCC2(O)C3Cc4ccc(O)c5c4C2(CC[N+]3([O-])CC2CC2)C1O5)c1ccc(C(F)(F)F)c(F)c1` (stereo not drawn) [Compound 56, 17-Cyclopropylmethyl-3,14β-dihydroxy-4,5α-epoxy-6β-[(3′-fluoro-4′-trifluoromethyl)benzamido]morphinan-N-oxide], the inhibition constant Ki on μ-opioid receptor (setting [1]) came out at 8.3 ± 0.3 nM; on δ-opioid receptor (Ki (nM) ± SEM, δ), 352 ± 10 nM; at κ-opioid receptor, 3.8 ± 0.3 nM.
Regarding `O=C(N[C@@H]1CC[C@@]2(O)[C@H]3Cc4ccc(O)c5c4[C@@]2(CC[N+]3([O-])CC2CC2)[C@H]1O5)c1ccc(C(F)(F)F)cc1` (stereo partly drawn) [Compound 22, 17-Cyclopropylmethyl-3,14β-dihydroxy-4,5α-epoxy-6β-[(4′-trifluoromethyl)benzamido]morphinan-N-oxide], the inhibition constant (Ki) at μ-opioid receptor (setting [1]) worked out at 1.4 ± 0.03 nM; on δ-opioid receptor (Ki (nM) ± SEM, δ) it was 117 ± 5.18 nM; at κ-opioid receptor, 1.9 ± 0.11 nM.
Taken in the same sequence, the figures for `O=C(N[C@H]1CC[C@@]2(O)[C@H]3Cc4ccc(O)c5c4[C@@]2(CC[N+]3([O-])CC2CC2)[C@H]1O5)c1ccccc1` (stereo partly drawn) [Compound 37, 17-Cyclopropylmethyl-3,14β-dihydroxy-4,5α-epoxy-6α-(benzamido)morphinan-N-oxide] were 37 ± 2.6 nM, 822 ± 124 nM and 64 ± 10 nM.
Take `CN(C(=O)c1ccc(C(C)(C)C)cc1)[C@@H]1CC[C@@]2(O)[C@H]3Cc4ccc(O)c5c4[C@@]2(CC[N+]3([O-])CC2CC2)[C@H]1O5` (stereo partly drawn) [Compound 27, 17-Cyclopropylmethyl-3,14β-dihydroxy-4,5α-epoxy-6β-N-methyl[(4′-tert-butyl)benzamido]morphinan-N-oxide]: the Ki at μ-opioid receptor (read-out: Ki (nM) ± SEM, μ) was found to be 714 ± 66 nM; at δ-opioid receptor (read-out: Ki (nM) ± SEM, δ), 535 ± 43.8 nM; on κ-opioid receptor (Table 1b, N-oxides) it was 72 ± 12.6 nM.
Consider `N#Cc1cccc(C(=O)N[C@@H]2CC[C@@]3(O)[C@H]4Cc5ccc(O)c6c5[C@@]3(CC[N+]4([O-])CC3CC3)[C@H]2O6)c1` (stereo partly drawn) [Compound 53, 17-Cyclopropylmethyl-3,14β-dihydroxy-4,5α-epoxy-6β-[(3′ cyano)benzamido]morphinan-N-oxide], for which the Ki turned out to be 117 ± 7.8 nM on μ-opioid receptor (setting [1]) and 426 ± 21.5 nM on κ-opioid receptor. The “Inhibition of agonist binding, δ” value on δ-opioid receptor is less than 50% inh.
As for `CN(C(=O)c1ccc(I)cc1)C1CCC2(O)C3Cc4ccc(O)c5c4C2(CC[N+]3([O-])CC2CC2)C1O5` (stereo not drawn) [Compound 54, 17-Cyclopropylmethyl-3,14-β-dihydroxy-4,5α-epoxy-6β-N-methyl-[(4′-iodo)benzamido]morphinan-N-oxide], the inhibition constant Ki worked out at 148 ± 9.3 nM at μ-opioid receptor (setting [1]); 3060 ± 271 nM on δ-opioid receptor (Ki (nM) ± SEM, δ); 117 ± 10 nM on κ-opioid receptor.
In the same order, the values of `COc1ccc(C(=O)N[C@H]2CC[C@@]3(O)[C@H]4Cc5ccc(O)c6c5[C@@]3(CC[N+]4([O-])CC3CC3)[C@H]2O6)cc1OC` (stereo partly drawn) [Compound 41, 17-Cyclopropylmethyl-3,14β-dihydroxy-4,5α-epoxy-6α-[(3′,4′-dimethoxy)benzamido]morphinan-N-oxide] are 16 ± 2.7 nM, 51 ± 2.45 nM and 30 ± 3 nM.
In the case of `O=C(N[C@@H]1CC[C@@]2(O)[C@H]3Cc4ccc(O)c5c4[C@@]2(CC[N+]3([O-])CC2CC2)[C@H]1O5)c1ccc(Br)cc1` (stereo partly drawn) [Compound 63, 17-Cyclopropylmethyl-3,14β-dihydroxy-4,5α-epoxy-6β-[(4′-bromo)benzamido]morphinan-N-oxide], the inhibition constant Ki worked out at 7 ± 0.1 nM on μ-opioid receptor (setting [1]); 246 ± 15 nM on δ-opioid receptor (Ki (nM) ± SEM, δ); 6.3 ± 0.6 nM at κ-opioid receptor.
Regarding “17-Cyclopropylmethyl-3,14-β-dihydroxy-4,5α-epoxy-6β-N-methyl-(4′-iodo)morphinan-N-oxide [Compound 62]”, the inhibitory constant (Ki) at μ-opioid receptor (read-out: Ki (nM) ± SEM, μ) amounted to 408 ± 11.5 nM; on κ-opioid receptor (Table 1b, N-oxides), 224 ± 15.7 nM. For the same molecule, the “Inhibition of agonist binding, δ” value on δ-opioid receptor is reported as less than 50% inh.
Consider `O=C(Cc1ccccc1)N[C@@H]1CC[C@@]2(O)[C@H]3Cc4ccc(O)c5c4[C@@]2(CC[N+]3([O-])CC2CC2)[C@H]1O5` (stereo partly drawn) [Compound 33, 17-Cyclopropylmethyl-3,14β-dihydroxy-4,5α-epoxy-6β-(phenylacetamido)morphinan-N-oxide], for which the inhibition constant (Ki) on μ-opioid receptor (setting [1]) is 43 ± 3 nM; on δ-opioid receptor (Ki (nM) ± SEM, δ), 1400 ± 40.5 nM; at κ-opioid receptor it was 47 ± 4 nM.
As to `Cc1ccc(C(=O)N[C@@H]2CC[C@@]3(O)[C@H]4Cc5ccc(O)c6c5[C@@]3(CC[N+]4(C)[O-])[C@H]2O6)cc1` (stereo partly drawn) [Compound 55, 17-Methyl-3,14β-dihydroxy-4,5α-epoxy-6β-[(4′-methyl)benzamido]morphinan-N-oxide], the figures for the Ki on μ-opioid receptor (setting [1]) and on κ-opioid receptor were 244 ± 8.2 nM and 1190 ± 134 nM, respectively. Moreover, the “Inhibition of agonist binding, δ” value at δ-opioid receptor is less than 50% inh.
Take `COc1ccc(CC(=O)N[C@@H]2CC[C@@]3(O)[C@H]4Cc5ccc(O)c6c5[C@@]3(CC[N+]4([O-])CC3CC3)[C@H]2O6)cc1` (stereo partly drawn) [Compound 39, 17-Cyclopropylmethyl-3,14β-dihydroxy-4,5α-epoxy-6β-[(4′-methoxy)phenylacetamido]morphinan N-oxide]: the inhibition constant (Ki) at μ-opioid receptor (setting [1]) came out at 78 ± 20 nM; on δ-opioid receptor (Ki (nM) ± SEM, δ), 472 ± 78 nM; on κ-opioid receptor, 10 ± 1 nM.
With `O=C(N[C@@H]1CC[C@@]2(O)[C@H]3Cc4ccc(O)c5c4[C@@]2(CC[N+]3([O-])CC2CC2)[C@H]1O5)c1ccccc1` (stereo partly drawn) [Compound 32, 17-Cyclopropylmethyl-3,14β-dihydroxy-4,5α-epoxy-6β-(benzamido)morphinan-N-oxide], the Ki at μ-opioid receptor (setting [1]) is 28 ± 2 nM; at δ-opioid receptor (Ki (nM) ± SEM, δ), 813 ± 34 nM; at κ-opioid receptor it was 8.5 ± 0.92 nM.
In the case of `O=C(Cc1cccs1)N[C@@H]1CC[C@@]2(O)[C@H]3Cc4ccc(O)c5c4[C@@]2(CC[N+]3([O-])CC2CC2)[C@H]1O5` (stereo partly drawn) [Compound 25, 17-Cyclopropylmethyl-3,14β-dihydroxy-4,5α-epoxy-6β-[(thiophen-2′-yl)acetamido]morphinan-N-oxide], the Ki on μ-opioid receptor (read-out: Ki (nM) ± SEM, μ) came to 34.8 ± 2.08 nM; on δ-opioid receptor (read-out: Ki (nM) ± SEM, δ) it was 752 ± 8.91 nM; on κ-opioid receptor (Table 1b, N-oxides), 13 ± 1 nM.
Taken in the same sequence, the figures for `CN(C(=O)c1ccc(C(C)(C)C)cc1)[C@H]1CC[C@@]2(O)[C@H]3Cc4ccc(O)c5c4[C@@]2(CC[N+]3([O-])CC2CC2)[C@H]1O5` (stereo partly drawn) [Compound 48] were 26 ± 2 nM, 148 ± 10 nM and 14 ± 1 nM.
Consider `CN(C(=O)c1ccc(I)cc1)[C@H]1CC[C@@]2(O)[C@H]3Cc4ccc(O)c5c4[C@@]2(CC[N+]3([O-])CC2CC2)[C@H]1O5` (stereo partly drawn) [Compound 47, 17-Cyclopropylmethyl-3,14-β-dihydroxy-4,5α-epoxy-6α-N-methyl-[(4′-iodo)benzamido]morphinan-N-oxide], for which the Ki at μ-opioid receptor (setting [1]) came out at 27.6 ± 0.8 nM; at δ-opioid receptor (Ki (nM) ± SEM, δ) it was 290 ± 17 nM; at κ-opioid receptor, 5.9 ± 0.4 nM.
